Results taken from paper PMC13308190, “Endothelial progenitor cell susceptibility to DNA damaging and DDR-modulating compounds determines endothelial differentiation accuracy” (Stem Cell Research & Therapy, 2026).

Experiments:
Type in all cases: cell-based, mouse
mESC [1] = assay: Nuclear γH2AX / 53BP1 foci (DSB); conditions: mESC 24 h, equitoxic concentrations
Procedure: (§1) DNA double-strand breaks were monitored by immunocytochemical detection of nuclear γH2AX and 53BP1 foci. Cells were fixed with 3.7% formaldehyde/PBS (15 min, RT) and permeabilized (0.3% TritonX/PBS; 15 min, RT). […] Cell suspension was mixed with 0.5% low melting point agarose and applied onto glass slides coated with 1.5% agarose. After lysis in alkaline buffer (pH 10, 1 h, 4 °C, protected from light) and DNA denaturation in precooled electrophoresis buffer (pH > 13, 25 min, 4 °C, protected from light) electrophoresis was performed (300 mA, 25 V, 4 °C, 25 min).

EC d4 [2] = assay: Nuclear γH2AX / 53BP1 foci (DSB); conditions: EC d4 48 h, equitoxic concentrations
Procedure: as §1

EC d4 [3] = assay: VE-cadherin cell-cell junction immunostaining; conditions: EC d4 treated 48 h
EC d6 = assay: Mitochondrial membrane potential (TMRM-MitoTracker Green); conditions: EC d6 treated 24 h
Procedure: Mitochondrial membrane potential (ΔΨm) was analyzed by live-cell imaging using TMRM-MitoTracker Green co-staining. Cells were seeded and differentiated on Poly-D-Lysine-fibronectine-coated live-imaging dishes. For staining, cells were incubated with 200nM MitoTracker Green (Invitrogen) and 50 nM TMRM (Invitrogen) in DMEM (30 min, 37 °C, 5% CO2). After washing with PBS, live-cell microscopy was performed using a spinning disc confocal microscope (PerkinElmer) equipped with a 60x oil-immersion objective (N.A = 1.49) and a Hamamatsu C9100 camera (1000 × 1000 pixel) (excitation (MitoTracker Green): 488 nm, excitation (TMRM): 561 nm). The cells were kept at 37 °C in OptiMEM supplemented with 10 mM HEPES during imaging. The images were obtained at emission wavelength of 527 nm (W55) and 615 nm (W70) for 488 nm and 561 nm excitation, respectively.

[4] = test system: EC d4 (endothelial progenitor cells); assay: RT-qPCR mRNA expression; conditions: for Ccl2 mRNA / E-selectin mRNA / Icam-1 mRNA / Vcam-1 mRNA / eNos mRNA / iNos mRNA: Fig 8D; for Cdkn1a mRNA / Cdkn2a mRNA / Glb1 mRNA / Il6 mRNA / Il8 mRNA / Tp53 mRNA: Fig 7B
Procedure: Total RNA was purified using the RNeasy Mini Kit (Qiagen, Hilden, Germany). Reverse transcriptase (RT) reaction was performed with the HighCapacity cDNA Reverse Transcription Kit (Applied Biosystems, Darmstadt, Germany) using 900–2000 ng of RNA. Quantitative RT-qPCR analysis was performed using following conditions: (1) 95 °C–10 min; (2) 45 amplification cycles with 95 °C–15 s, 55 °C–15 s, and 72 °C–17 s; (3) 95 °C–1 min, 55 °C–1 min, 65 °C–5 s. If not stated otherwise, analyses were performed in technical triplicates using pooled samples from two independent experiments (each performed with biological duplicates) by use of a CFX96 cycler (BioRad) and the SensiMix SYBR Kit (Bioline, London, UK). The primers used for mRNA expression analyses are listed in Supplementary Table 1. To ensure the specificity of the amplification product, melting curves were recorded at the end of the run. mRNA expression levels were normalized to β-Actin and Gapdh. Relative mRNA expression in mESC or corresponding untreated controls was set to 1.0. Only changes in gene expression of ≤ 0.5- and ≥ 2-fold were considered as biologically relevant.
To monitor prototypical functions of endothelial cells, the uptake of fluorescent 1,1-dioctadecyl-3,3,3,3-tetra-methylindocarbocyanine-labeled acetylated LDL (Dil-acLDL) was examined. Briefly, cells were incubated with Dil-acLDL (10 µg/ml, 4 h, 37 °C). After fixation (3.7% cold formaldehyde/PBS (15 min, RT) nuclei were counterstained with DAPI. The uptake of DiI-acLDL was analyzed by fluorescence microscopy (Olympus BX43, 20x objective). Additionally, the response of differentiated EC to inflammatory cytokines was measured. After treatment with a pro-inflammatory cytokine mixture (TNFα/IL-1β, 10 ng/mL) for 1 h, mRNA expression of activated EC markers E-selectin, Icam-1, Vcam-1, Ccl2, eNos, iNos was analyzed (RT-qPCR).

mESC [5] = assay: AlamarBlue cell viability; conditions: 24–72 h treatment
Procedure: (§2) Drug-induced cytotoxicity was monitored by analyzing cell viability using the AlamarBlue assay, which measures the reduction of the non-fluorescent dye resazurin (Sigma [Steinheim, Germany]) to fluorescent resorufin by living (i.e. metabolically active) cells. Fluorescence was measured in quadruplicates (excitation: 535 nm, emission: 590 nm (Tecan infinite 200, Tecan, Männedorf, Switzerland)). Relative cell viability of the untreated control was set to 100%.

[6] = test system: EC d4 (endothelial progenitor cells); assay: AlamarBlue cell viability; conditions: 48 h treatment
Procedure: as §2

[7] = EC d4 + 5 µM 48 h, analysed in EC d6
[8] = EC d4 + 5 µM 48 h, then + I/T (IL-1β/TNFα 10 ng/ml, 1 h)
[9] = EC d4 + 15 µM 48 h, analysed day 6, Fig 1C
[10] = EC d4 + 15 µM 48 h, analysed in EC d6
[11] = EC d4 + 15 µM 48 h, then + I/T (IL-1β/TNFα 10 ng/ml, 1 h)

For `O=c1c2ccccc2nc(/C=C/c2cccnc2)n1Cc1ccccc1` [B02], the “nuclear γH2AX foci” value (mESC [1]) was “significant increase”, the “DSB numbers (γH2AX / 53BP1 foci)” value (EC d4 [2]) was “clear increase” and the “VE-cadherin cell-cell junctions in EC d6 differentiated from treated EC d4” value (EC d4 [3]) was “did not trigger defects”. The mitochondrial membrane potential (EC d6) was “significantly reduced”, the “Ccl2 mRNA” value [4, 7] was 2.96 Fold of untreated control and the “E-selectin mRNA” value [4, 7] was 120.46 Fold of untreated control. The “Icam-1 mRNA” value [4, 7] was 3.12 Fold of untreated control, the “Vcam-1 mRNA” value [4, 7] was 0.19 Fold of untreated control and the “eNos mRNA” value [4, 7] was 153.40 Fold of untreated control. For the same molecule, the “iNos mRNA” value [4, 7] was 2.01 Fold of untreated control, the “Ccl2 mRNA” value [4, 8] was 279.77 Fold of untreated control and the “E-selectin mRNA” value [4, 8] was 257.65 Fold of untreated control. The “Icam-1 mRNA” value [4, 8] was 9.69 Fold of untreated control, the “Vcam-1 mRNA” value [4, 8] was 0.36 Fold of untreated control and the “eNos mRNA” value [4, 8] was 184.04 Fold of untreated control. For the same molecule, the “iNos mRNA” value [4, 8] was 2.26 Fold of untreated control, the “Cdkn1a mRNA” value ([4]; EC d4 + 5 µM 48 h) was 1.71 Fold of untreated control and the “Cdkn2a mRNA” value ([4]; EC d4 + 5 µM 48 h) was 1.24 Fold of untreated control. For the same molecule, the “Glb1 mRNA” value ([4]; EC d4 + 5 µM 48 h) was 1.45 Fold of untreated control, the “Il6 mRNA” value ([4]; EC d4 + 5 µM 48 h) was 0.80 Fold of untreated control and the “Il8 mRNA” value ([4]; EC d4 + 5 µM 48 h) was 0.83 Fold of untreated control. For the same molecule, the “Tp53 mRNA” value ([4]; EC d4 + 5 µM 48 h) was 0.98 Fold of untreated control, the “Flk1 mRNA” value [4, 9] was 6.99 Fold of mESC and the “Nanog mRNA” value [4, 9] was 0.03 Fold of mESC. The “Oct4 mRNA” value [4, 9] was 0.01 Fold of mESC, the “Pecam1 mRNA” value [4, 9] was 0.62 Fold of mESC and the “Tie1 mRNA” value [4, 9] was 29.11 Fold of mESC. The “VE-cad mRNA” value [4, 9] was 484.74 Fold of mESC, the “Ccl2 mRNA” value [4, 10] was 0.38 Fold of untreated control and the “E-selectin mRNA” value [4, 10] was 126.11 Fold of untreated control. The “Icam-1 mRNA” value [4, 10] was 1.02 Fold of untreated control, the “Vcam-1 mRNA” value [4, 10] was 0.08 Fold of untreated control and the “eNos mRNA” value [4, 10] was 47.93 Fold of untreated control. For the same molecule, the “iNos mRNA” value [4, 10] was 0.43 Fold of untreated control, the “Ccl2 mRNA” value [4, 11] was 84.86 Fold of untreated control and the “E-selectin mRNA” value [4, 11] was 165.16 Fold of untreated control. For the same molecule, the “Icam-1 mRNA” value [4, 11] was 2.52 Fold of untreated control, the “Vcam-1 mRNA” value [4, 11] was 0.12 Fold of untreated control and the “eNos mRNA” value [4, 11] was 55.08 Fold of untreated control. The “iNos mRNA” value [4, 11] was 0.33 Fold of untreated control, the “Brca1 mRNA” value ([4]; EC d4 + 15 µM 48 h, Fig 5C) was 0.27 Fold of mESC and the “Chk1 mRNA” value ([4]; EC d4 + 15 µM 48 h, Fig 5C) was 0.92 Fold of mESC. The “Rad51 mRNA” value ([4]; EC d4 + 15 µM 48 h, Fig 5C) was 0.19 Fold of mESC, the “Pgc1a mRNA” value ([4]; EC d4 + 15 µM 48 h, Fig 6D) was 0.11 Fold of untreated control and the “Cdkn1a mRNA” value ([4]; EC d4 + 15 µM 48 h) was 2.57 Fold of untreated control. For the same molecule, the “Cdkn2a mRNA” value ([4]; EC d4 + 15 µM 48 h) was 1.39 Fold of untreated control, the “Glb1 mRNA” value ([4]; EC d4 + 15 µM 48 h) was 2.55 Fold of untreated control and the “Il6 mRNA” value ([4]; EC d4 + 15 µM 48 h) was 1.35 Fold of untreated control. For the same molecule, the “Il8 mRNA” value ([4]; EC d4 + 15 µM 48 h) was 0.85 Fold of untreated control, the “Tp53 mRNA” value ([4]; EC d4 + 15 µM 48 h) was 0.72 Fold of untreated control and the “Cldn5 mRNA” value ([4]; EC d4 + 15 µM 48 h, Fig 8C) was 0.18 Fold of EC d4 or d6. For the same molecule, the “Ocln mRNA” value ([4]; EC d4 + 15 µM 48 h, Fig 8C) was 1.16 Fold of EC d4 or d6, the “Tjp1 mRNA” value ([4]; EC d4 + 15 µM 48 h, Fig 8C) was 1.26 Fold of EC d4 or d6 and the “Ldlr mRNA” value ([4]; EC d4 + 15 µM 48 h, Fig 8F) was 1.78 Fold of untreated control. For the same molecule, the IC50 (mESC [5]) was roughly 20 µM and the “susceptibility (cell viability) of EC d4 as compared to both mESC and EC d6” value [6] was “not observed”.
